{"source": "patent US6913935B1", "about": "“Multiple assay method” (Amersham Biosciences UK Limited, priority 1998, dated 2005)", "target": "streptavidin (Streptomyces avidinii, UniProt P22629)", "sequence (P22629 25-183, species assumed)": "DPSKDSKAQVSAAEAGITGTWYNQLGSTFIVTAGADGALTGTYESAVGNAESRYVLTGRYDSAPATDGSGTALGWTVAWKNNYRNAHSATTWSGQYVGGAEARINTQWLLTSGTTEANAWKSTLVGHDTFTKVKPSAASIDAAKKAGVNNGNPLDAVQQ", "assay": "Competition of Cy-5 labelled biotin binding to streptavidin coated beads, mixed wells analysed by flow cytometry", "settings": "well 2, bead type B (purple fluor), buffer containing biotin added before Cy-5 labelled biotin; compared with well 1 (buffer only)", "description": "Streptavidin coated bead type A (yellow fluor) and bead type B (purple fluor) were pipetted into two separate wells of a microtitre plate, such that well 1 contained bead A and well 2 contained bead B. Buffer was added to well 1 and buffer containing biotin was added to well 2. Following mixing arid incubation a solution of Cy-5 labelled biotin in buffer was added to both wells. Following further incubation the contents of well 1 and well 2 were combined and the mixture analysed by flow cytometry."}
{"smiles": "O=C(O)CCCC[C@@H]1SC[C@@H]2NC(=O)N[C@@H]21", "note": "[biotin]", "values": [{"measurement": "Cy-5 fluorescence associated with bead type (Cy-5-biotin binding to streptavidin on the bead surface)", "result": "low Cy-5-biotin binding"}]}
